Experimental data published in PubChem BioAssay AID248 (DTP/NCI, 2004).
Several values for one entry are separate records, joined by “and”; a condition that tells them apart may be missing. Equal values may be shown once. Inconclusive results and toxic doses are left out. No stated cut-off is given here; in the data, active means T/C of 150% or more; inactive means T/C below 125%.

Tested on: L1210 leukemia ip in BDF1 mice, survival T/C
Experiment: NCI In Vivo Anticancer Drug Screen. Data for tumor model L1210 Leukemia (intraperitoneal) in B6D2F1 (BDF1) mice
Conditions: endpoint: mean survival time, higher = longer survival
Summary of the method: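 Read-out is survival time, reported as the treated-group measurement over the vehicle-control measurement.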

[1] = dose: 100.0 mg/kg/injection, schedule: Q01DX001 (ip), vehicle: saline
[2] = dose: 200.0 mg/kg/injection, schedule: Q01DX001 (ip), vehicle: saline
[3] = dose: 400.0 mg/kg/injection, schedule: Q01DX001 (ip), vehicle: saline
[4] = dose: 100.0 mg/kg/injection, schedule: Q01DX001 (ip), vehicle: carboxymethylcellulose (CMC)
[5] = dose: 200.0 mg/kg/injection, schedule: Q01DX001 (ip), vehicle: carboxymethylcellulose (CMC)
[6] = dose: 400.0 mg/kg/injection, schedule: Q01DX001 (ip), vehicle: carboxymethylcellulose (CMC)
[7] = dose: 100.0 mg/kg/injection, schedule: Q01DX009 (ip), vehicle: Klucel (hydroxypropylcellulose) (HPC)
[8] = dose: 100.0 mg/kg/injection, schedule: Q04DX003 (ip), vehicle: Klucel (hydroxypropylcellulose) (HPC)
[9] = dose: 200.0 mg/kg/injection, schedule: Q01DX009 (ip), vehicle: Klucel (hydroxypropylcellulose) (HPC)
[10] = dose: 200.0 mg/kg/injection, schedule: Q04DX003 (ip), vehicle: Klucel (hydroxypropylcellulose) (HPC)
[11] = dose: 400.0 mg/kg/injection, schedule: Q01DX009 (ip), vehicle: Klucel (hydroxypropylcellulose) (HPC)
[12] = dose: 400.0 mg/kg/injection, schedule: Q04DX003 (ip), vehicle: Klucel (hydroxypropylcellulose) (HPC)
[13] = dose: 100.0 mg/kg/injection, schedule: Q04DX003 (ip), vehicle: saline
[14] = dose: 100.0 mg/kg/injection, schedule: Q04DX003 (ip), vehicle: saline with Tween-80

Measured: T/C

COC1(OC)C2C=CC1C1C(=O)CC1C(=O)C2 (stereo not drawn)
inactive: dose: 75.0 mg/kg/injection, schedule: Q01DX009 (ip), vehicle: Klucel (hydroxypropylcellulose) (HPC) 108 % of control | dose: 100.0 mg/kg/injection, schedule: Q01DX001 (ip), vehicle: Klucel (hydroxypropylcellulose) (HPC) 100 % of control | dose: 150.0 mg/kg/injection, schedule: Q01DX009 (ip), vehicle: Klucel (hydroxypropylcellulose) (HPC) 113 % of control | dose: 200.0 mg/kg/injection, schedule: Q01DX001 (ip), vehicle: Klucel (hydroxypropylcellulose) (HPC) 103 % of control | dose: 300.0 mg/kg/injection, schedule: Q01DX009 (ip), vehicle: Klucel (hydroxypropylcellulose) (HPC) 105 % of control | dose: 400.0 mg/kg/injection, schedule: Q01DX001 (ip), vehicle: Klucel (hydroxypropylcellulose) (HPC) 90 % of control

CCC(=O)Nc1ccc(OS(=O)(=O)N(C)C)cc1
inactive: dose: 100.0 mg/kg/injection, schedule: Q01DX001 (ip), vehicle: saline with Tween-80 100 % of control | dose: 200.0 mg/kg/injection, schedule: Q01DX001 (ip), vehicle: saline with Tween-80 95 % of control | dose: 400.0 mg/kg/injection, schedule: Q01DX001 (ip), vehicle: saline with Tween-80 100 % of control

Cc1ccnc(NC2=CC(=O)C(=O)c3ccccc32)c1
inactive: dose: 100.0 mg/kg/injection, schedule: Q01DX001 (ip), vehicle: other 93 % of control | dose: 200.0 mg/kg/injection, schedule: Q01DX001 (ip), vehicle: other 95 % of control | dose: 400.0 mg/kg/injection, schedule: Q01DX001 (ip), vehicle: other 103 % of control

O=C(Nc1ccc2c(c1)OCO2)O/N=C1\C(=O)Nc2ccccc21
inactive: dose: 50.0 mg/kg/injection, schedule: Q01DX009 (ip), vehicle: saline 103 % of control | dose: 100.0 mg/kg/injection, schedule: Q01DX009 (ip), vehicle: saline 100 % of control

Cc1nc(N)nc(Nc2ccc(CCO)cc2)c1Br
inactive: dose: 100.0 mg/kg/injection, schedule: Q01DX Z (ip), vehicle: methylcellulose (MC) 103 % of control | dose: 200.0 mg/kg/injection, schedule: Q01DX Z (ip), vehicle: methylcellulose (MC) 98 % of control

O=C1Nc2cccc3cc([N+](=O)[O-])cc1c23
inactive: [1] 101 % of control | [2] 93 % of control | [3] 103 % of control

Cc1c2c(cc3c1[nH]c1ccccc13)C(C(F)(F)F)=NCC2
inactive: dose: 16.0 mg/kg/injection, schedule: Q01DX005 (ip), vehicle: saline 97 % of control | dose: 32.0 mg/kg/injection, schedule: Q01DX005 (ip), vehicle: saline 100 % of control | dose: 64.0 mg/kg/injection, schedule: Q01DX005 (ip), vehicle: saline 100 % of control | dose: 128.0 mg/kg/injection, schedule: Q01DX005 (ip), vehicle: saline 101 % of control

COc1ccc2c(c1O)C13CCN(C)C(C2)C12C=CC(=O)C3c1c(O)ccc(O)c12 (stereo not drawn)
inactive: [4] 92 % of control | [5] 97 % of control | [6] 95 % of control

Cc1ccc(-c2cc(-c3ccccc3)no2)cc1
inactive: [7] 97 % of control | [8] 102 % of control | [9] 95 % of control | [10] 102 % of control | [11] 95 % of control | [12] 93 % of control

O=[N+]([O-])c1ccc(/C=C\c2ccncc2)cc1
inactive: [4] 101 % of control | dose: 100.0 mg/kg/injection, schedule: Q01DX009 (ip), vehicle: carboxymethylcellulose (CMC) 100 % of control | dose: 100.0 mg/kg/injection, schedule: Q04DX002 (ip), vehicle: carboxymethylcellulose (CMC) 103 % of control and 108 % of control | dose: 100.0 mg/kg/injection, schedule: Q04DX003 (ip), vehicle: carboxymethylcellulose (CMC) 100 % of control | [5] 105 % of control | dose: 200.0 mg/kg/injection, schedule: Q01DX009 (ip), vehicle: carboxymethylcellulose (CMC) 98 % of control | dose: 200.0 mg/kg/injection, schedule: Q04DX002 (ip), vehicle: carboxymethylcellulose (CMC) 100 % of control | dose: 200.0 mg/kg/injection, schedule: Q04DX003 (ip), vehicle: carboxymethylcellulose (CMC) 115 % of control | [6] 95 % of control | dose: 400.0 mg/kg/injection, schedule: Q04DX002 (ip), vehicle: carboxymethylcellulose (CMC) 100 % of control | dose: 400.0 mg/kg/injection, schedule: Q04DX003 (ip), vehicle: carboxymethylcellulose (CMC) 104 % of control

CC(C)(C)OC(=O)NC(Cc1ccccc1)C(=O)O (stereo not drawn)
inactive: [1] 100 % of control | [2] 94 % of control | [3] 93 % of control

CCCCCCCCCCCCNC(=O)C[n+]1cccc(C(N)=O)c1
inactive: [13] 96 % of control

COC(=O)CN1C(=O)c2ccccc2C1=O
inactive: [13] 95 % of control | dose: 200.0 mg/kg/injection, schedule: Q04DX003 (ip), vehicle: saline 101 % of control | dose: 400.0 mg/kg/injection, schedule: Q04DX003 (ip), vehicle: saline 98 % of control

CC1(C)C2CCC1(C)C(C(=O)C(F)(F)F)C2=O.CC1(C)C2CCC1(C)C(C(=O)C(F)(F)F)C2=O.[Co] (stereo not drawn)
inactive: dose: 100.0 mg/kg/injection, schedule: Q04DX002 (ip), vehicle: saline 110 % of control | dose: 200.0 mg/kg/injection, schedule: Q04DX002 (ip), vehicle: saline 94 % of control

CCOC(=O)CC(=O)O
inactive: [1] 91 % of control | [2] 97 % of control | [3] 91 % of control

COc1cc2c(cc1OC)C1(NCC2)C(=O)Nc2c(Cl)cccc21 (stereo not drawn)
inactive: dose: 30.0 mg/kg/injection, schedule: Q04DX002 (ip), vehicle: saline 124 % of control | dose: 60.0 mg/kg/injection, schedule: Q04DX002 (ip), vehicle: saline 113 % of control | dose: 120.0 mg/kg/injection, schedule: Q04DX002 (ip), vehicle: saline 117 % of control

Oc1ccccc1C1OCCO1
inactive: [1] 107 % of control | [2] 95 % of control | [3] 95 % of control

C/C=C(\Br)C(=O)O
inactive: dose: 100.0 mg/kg/injection, schedule: Q04DX002 (ip), vehicle: other 104 % of control | [14] 92 % of control | dose: 200.0 mg/kg/injection, schedule: Q04DX002 (ip), vehicle: other 104 % of control

Cc1ccc(Cl)c(P(=O)(O)O)c1
inactive: [14] 97 % of control | dose: 200.0 mg/kg/injection, schedule: Q04DX003 (ip), vehicle: saline with Tween-80 106 % of control | dose: 400.0 mg/kg/injection, schedule: Q04DX003 (ip), vehicle: saline with Tween-80 104 % of control

Cc1cccc(NC(=O)NC2CCC(CC3CCCCC3)CC2)c1 (stereo not drawn)
inactive: [7] 106 % of control | [8] 97 % of control | [9] 97 % of control | [10] 101 % of control | [11] 95 % of control | [12] 101 % of control

Cc1ccc(NC(=O)Nc2cccc(Cl)c2)c(C)c1
inactive: [7] 86 % of control | [9] 94 % of control | [11] 87 % of control

Cn1c(C(Cl)Cl)nc2ccccc2c1=O
inactive: dose: 50.0 mg/kg/injection, schedule: Q01DX001 (ip), vehicle: carboxymethylcellulose (CMC) 106 % of control | [4] 106 % of control | [5] 106 % of control | [6] 97 % of control

CC1CN=C(CCc2ccc(NC(=O)c3ccc(C(=O)Nc4ccc(CCC5=NCC(C)N5)cc4)cc3)cc2)N1 (stereo not drawn)
inactive: dose: 240.0 mg/kg/injection, schedule: Q01DX Z (ip), vehicle: saline 97 % of control | dose: 480.0 mg/kg/injection, schedule: Q01DX Z (ip), vehicle: saline 92 % of control

CCCCCCn1c(O)c(C=N)c(=O)[nH]c1=O
inactive: [7] 100 % of control | [8] 93 % of control | [9] 99 % of control | [10] 100 % of control | [11] 97 % of control | [12] 94 % of control
